Drawing on publication PMC7386434 (Organic letters, 2010), this text covers GI50 for 1 molecule.

Common to all, as to format: cell-based
The subject of assay [1] is human embryonic lung fibroblast (HLF) cells. The assay is described as follows: Antiproliferative activity, HLF cells. The conditions noted are these: read-out: GI50 HLF.
Assay [2] has as its system colorectal carcinoma cell line HCT-116. Nature of the assay: Antiproliferative activity, HCT-116 cells. The following applies: Homo sapiens, HCT-116, read-out: GI50 HCT-116.
Assay [3] has as its system human embryonic kidney cell line (HEK293). The assay is described as follows: Antiproliferative activity, HEK293 cells. The conditions noted are these: HEK293, read-out: GI50 HEK293.
The subject of assay [4] is human lung cancer cell line (A549). The assay is described as follows: Antiproliferative activity, A549 cells. The conditions noted are these: A549, read-out: GI50 A549.

In the case of `CCCCCCCC(=O)SCC/C=C/[C@@H]1CC(=O)NCc2nc(cs2)C2=N[C@@](C)(CS2)C(=O)N[C@@H](C(C)C)C(=O)O1` [compound 1, largazole], the GI50 (in general, the concentration at which growth is held to half of that of the control) in assay [1] was 980 nM; in assay [2], 80 nM; in assay [3], 1360 nM; in assay [4], 320 nM.
